According to ChEMBL document CHEMBL5150075 (J Med Chem, 2022):
Activity calls are given as the source filed them. The rule behind the calls is not given here.

Experiments:
DU-145 [1] = assay: Antiproliferative activity against human DU-145 cells assessed as inhibition of cell growth incubated for 72 hrs by MTT assay; assay type: functional, cell-based; details: DU-145, 72 h
DU-145 [2] = assay: Induction of G2/M phase cell cycle arrest in human DU-145 cells assessed as decrease in Cdc2 phosphorylation at T14/Y15 residue at 0.03 to 0.3 uM measured after 12 hrs by Western blot analysis; assay type: functional, cell-based; details: dose 0.03-0.3 µM
DU-145 [3] = assay: Induction of G2/M phase cell cycle arrest in human DU-145 cells assessed as increase in histone H3 phosphorylation at Ser10 residue at 0.03 to 0.3 uM measured after 12 hrs by Western blot analysis; assay type: functional, cell-based; details: dose 0.03-0.3 µM
DU-145 [4] = assay: Induction of apoptosis in human DU-145 cells assessed as early apoptotic cells at 0.1 uM incubated for 48 hrs by Annexin V-FITC/PI staining based flow cytometry analysis (reference value: 1.97%); assay type: functional
DU-145 [5] = assay: Induction of apoptosis in human DU-145 cells assessed as increase in cleaved caspase 3 level at 0.003 to 0.3 uM incubated for 48 hrs by Western blot analysis; assay type: functional, cell-based; details: dose 0.003-0.3 µM
DU-145 [6] = assay: Antiproliferative activity against human DU-145 cells assessed as inhibition of cell growth incubated for 72 hrs by real-time cell analysis; assay type: functional, cell-based; details: DU-145, 72 h
NCI-H1437 = assay: Antiproliferative activity against human NCI-H1437 cells assessed as inhibition of cell growth incubated for 72 hrs by MTT assay; assay type: functional, cell-based; details: NCI-H1437, 72 h
HCT-8 = assay: Antiproliferative activity against human HCT-8 cells assessed as inhibition of cell growth incubated for 72 hrs by MTT assay; assay type: functional, cell-based; details: HCT-8, 72 h
[7] = AUC (0 to t) in Kunming mouse at 2 mg/kg, iv by LC-MS/MS analysis; assay type: ADME, organism-based; set-up: dose 2 mg/kg, route iv; details: in vivo

Structure (SMILES): Cc1ccc(S(=O)(=O)Nc2cc(C(=O)NCc3ccc(C)nc3)ccc2C)cc1
- IC50 (DU-145 [1]): 8 nM
- Activity (DU-145 [2]): Active
- Activity (DU-145 [3]): Active
- Activity (DU-145 [4]): 24.79%
- Activity (DU-145 [5]): Active
- IC50 (DU-145 [6]): 9 nM
- IC50 (NCI-H1437): 2 nM
- IC50 (HCT-8): 22 nM
- AUC(0-t) [7]: 534 ng·h/mL
